The text below walks through data of ChEMBL document CHEMBL1201862, “PubChem BioAssay data set” (2004).

Test in all cases: growth of human tumour cells (NCI), 48 h
For assay [1], the system named is CAKI-1.
Assay [2] has as its system DMS-273.
The test system of assay [3] is HCC 2998.
In assay [4] the test system is HCT-116.
The test system of assay [5] is KM12.
Assay [6] deals with MOLT-4.
For assay [7], the system named is NCI-H23.
In assay [8] the test system is NCI-H460.
The test system of assay [9] is OVCAR-4.
For assay [10], the system named is SF-295.
For assay [11], the system named is SF-539.
Assay [12] relates to SK-MEL-5.
The test system of assay [13] is SNB-19.
Assay [14] relates to SR.
In assay [15] the test system is UACC-62.
Assay [16] deals with A498.
Assay [17] concerns SF-268.

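Cells were grown in 96-well plates and exposed to each compound for 48 hours at five concentrations; endpoints were interpolated linearly between bracketing concentrations, or set to the highest concentration if not reached. GI50 = concentration required for 50% inhibition of growth.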 Calls of active or inactive are those of the source. Rule as the data show it: active = GI50 up to about 1.1 µM and inactive = higher.

As to `O=c1c2cc3c(cc2c2cccc4c2n1CCC4)OCO3`, the GI50 is 78.9 µM (inactive) in assay [1]; 28.1 µM (inactive) in [2]; 26.6 µM (inactive) in [3]; 23.4 µM (inactive) in [4]; 33.3 µM (inactive) in assay [5]; 24.6 µM (inactive) in assay [6]. The GI50 in assay [7] was 22.4 µM (inactive); in [8] it was 37.1 µM (inactive); in assay [9] it was 88.9 µM (inactive); in assay [10] it was 33.8 µM (inactive); in [11], 30.4 µM (inactive); in assay [12], 42.4 µM (inactive). In addition, the GI50 was 44.7 µM (inactive) in assay [13], 29.2 µM (inactive) in assay [14] and 46.2 µM (inactive) in [15].

Consider `N#CC(C(=N/NC(N)=S)/C(=N\NC(N)=S)C(C#N)c1ccccc1)c1ccccc1` (centres undefined), for which the GI50 in [16], in assay [2], in assay [3], in assay [4], in assay [5] and in [6] was > 10 µM (inactive) in each case. Further, the GI50 in [7], in assay [8], in assay [9], in assay [17], in assay [10] and in assay [11] was > 10 µM (inactive) throughout. For the same molecule, the GI50 in assay [13] and in [15] was > 10 µM (inactive) throughout.

Regarding `C/C(=N\NC(=S)N1CCCCCC1)c1nccnc1C`, the GI50 was 1.58 µM (inactive) in assay [16]; 0.155 µM (active) in [1]; < 0.01 µM (active) in assay [2]; 7.36 µM (inactive) in [3]; 0.0887 µM (active) in assay [5]; 0.0658 µM (active) in assay [6]. Moreover, the GI50 in assay [7] is < 0.01 µM (active); in [9] it was 0.134 µM (active); in [17], 0.176 µM (active); in assay [10] it was 0.124 µM (active); in assay [11] it was 0.242 µM (active); in [12], 0.0292 µM (active). Moreover, the GI50 in assay [15] was < 0.01 µM (active).

For the molecule `CCCCCCCCCCCCCC(=O)NCC(OCC)OCC`, the GI50 in assay [16], in assay [2], in [3], in assay [4], in [5] and in assay [7] was > 100 µM (inactive) in each case. Besides, the GI50 in [8], in [9], in assay [17], in assay [10], in assay [11] and in assay [12] was > 100 µM (inactive) in each case. Besides, the GI50 in [13] and in [15] was > 100 µM (inactive) throughout.

As to `CN1CCc2ccccc2C(C(=O)c2ccc3c(c2)OCO3)C1=O` (centres undefined), the GI50 in [16], in assay [1], in assay [2], in assay [4], in [5] and in [6] was > 100 µM (inactive) throughout. Also, the GI50 was 96.2 µM (inactive) in [7]; > 100 µM (inactive) in [8]; 89.3 µM (inactive) in assay [9]; > 100 µM (inactive) in [17]; 53.3 µM (inactive) in [12]; > 100 µM (inactive) in assay [13]. The GI50 in assay [15] is > 100 µM (inactive).

Turning to `CCOC(=O)NNC(=O)NC12CC3CC(CC(C3)C1)C2`, the GI50 in assay [16], in assay [1], in [2], in assay [3], in [4] and in [5] was > 100 µM (inactive) throughout. The GI50 in assay [6], in [7], in [8], in assay [9], in assay [17] and in [10] was > 100 µM (inactive) each time. For the same molecule, the GI50 in assay [11], in assay [12], in [13] and in assay [15] was > 100 µM (inactive) throughout.

Regarding `O=C(CSc1nnc(Cc2ccccc2)o1)Nc1ccc(Cl)cc1[N+](=O)[O-]`, the GI50 is 19.7 µM (inactive) in assay [2]; 14 µM (inactive) in assay [4]; > 10 µM (inactive) in [5]; 18.9 µM (inactive) in [6]; 17.4 µM (inactive) in assay [7]; > 10 µM (inactive) in assay [8]. In addition, the GI50 in assay [9] is 18.8 µM (inactive); in assay [17], 21.5 µM (inactive); in assay [10], 18.7 µM (inactive); in assay [12], 16.9 µM (inactive); in assay [13] it was 14.4 µM (inactive); in [14], 26.2 µM (inactive). For the same molecule, the GI50 in [15] was 14.2 µM (inactive).

As for `CC(=O)OCc1c(O)nc2c(c1O)-c1ccccc1CC2`, the GI50 in [1] is 59.2 µM (inactive); in assay [2] it was 49.2 µM (inactive); in assay [3], 80.9 µM (inactive); in assay [4] it was 58.2 µM (inactive); in assay [5], 53.2 µM (inactive); in assay [6], 97.5 µM (inactive). The GI50 in assay [7] was 76.6 µM (inactive); in assay [8], 77.8 µM (inactive); in [17] it was 77.1 µM (inactive); in [10], 74.6 µM (inactive); in [11] it was 89.1 µM (inactive); in [12] it was 76.6 µM (inactive). Besides, the GI50 was > 350 µM (inactive) in [13], 95.1 µM (inactive) in [14] and 50.5 µM (inactive) in [15].

With `COCC1N=C(c2cc(OC)c(OC)c(OC)c2-c2cc3c(cc2C2OCCCO2)OCO3)O[C@H]1c1ccccc1` (some centres undefined), the GI50 in [16] was > 100 µM (inactive); in assay [1], 79.4 µM (inactive); in assay [2], > 100 µM (inactive); in [3], > 100 µM (inactive); in assay [4] it was > 100 µM (inactive); in assay [5] it was > 100 µM (inactive). Moreover, the GI50 in assay [6], in [7], in [8], in assay [9], in assay [17] and in [10] was > 100 µM (inactive) throughout. Also, the GI50 in assay [11], in assay [12], in assay [13] and in [15] was > 100 µM (inactive) in each case.

Take `COc1ccc(C(Cc2cc(OC)c(OC)c(OC)c2)C(=O)O)cc1` (centres undefined): the GI50 was 56.5 µM (inactive) in [16]; 64.1 µM (inactive) in assay [1]; 52.5 µM (inactive) in assay [2]; > 100 µM (inactive) in assay [3]; 41.5 µM (inactive) in [4]; 41.8 µM (inactive) in assay [5]. In addition, the GI50 in assay [7] is 97.9 µM (inactive); in assay [8] it was 45.7 µM (inactive); in [9], > 100 µM (inactive); in [17], 81.8 µM (inactive); in assay [10], 26.1 µM (inactive); in assay [11] it was 42.6 µM (inactive). Further, the GI50 in [12] was 25.9 µM (inactive); in [13], 62.7 µM (inactive); in assay [15], 31.2 µM (inactive).
